Laboratory results taken from patent US20120129764A1 (priority 2009, published 2012).

Experiments:
[1] = tested on: PA (FluB); assay type: binding, influenza B virus
[2] = tested on: PA (FluA); assay type: binding, influenza A virus

## MDVNPTFLFLKVPAQ [PB11-15AL7F, ------F--------]
[1]
  IC50: > 3000 nM

## MDVNPCLLFLKVPAQ [PB11-15AT6C, -----C---------]
[2]
  IC50: 43.6 nM
[1]
  IC50: > 3000 nM

## MDVNPHLLFLKVPAQ [PB11-15AT6H, -----H---------]
[1]
  IC50: > 3000 nM

## MNINPTLLFLKVPAQ [PB11-15AD2N,V3I, -NI------------]
[1]
  IC50: > 3000 nM

## MDVNPTLLFLKVPAQ [PB11-15A, reference compound]
[1]
  IC50: > 3000 nM
  competition for binding to FluB PA: not FluB PA binding

## MDVNPFLLFLKVPAQ [PB11-15AT6F]
[2]
  IC50: 2.84 nM
[1]
  IC50: 750 nM

## MDVNPYFLFLKVPAQ [PB11-15AT6Y,L7F]
[2]
  IC50: 7.51 nM
  competition for binding to FluA PA: competed for binding to FluA PA
[1]
  IC50: 345 nM
  competition for binding to FluB PA: also to FluB PA, albeit with less affinity than PB11-15B

## MDVNPYLLFLKVPAQ [PB11-15AT6Y]
[2]
  IC50: 21.6 nM
  competition for binding to FluA PA: decreased binding of FluA PA compared to the double mutant, yet binding was still better than with wild type peptide
[1]
  IC50: 107 nM
  competition for binding to FluB PA: binding to FluB PA increased

## MDVNPTLLFIDVPAQ [PB11-15AL10I,K11D, ---------ID----]
[1]
  IC50: > 3000 nM

## MDVNPWLLFLKVPAQ [PB11-15AT6W]
[2]
  IC50: 3.4 nM
[1]
  IC50: 628 nM

## MNINPTLLFLKVPIQ [PB11-15AD2N,V3I,L14I, -NI----------I-]
[1]
  IC50: > 3000 nM

## MNINPYFLFIDVPIQ [PB11-15B, -NI--YF--ID--I-, reference compound]
[2]
  IC50: > 3000 nM
  competition for binding to FluA PA: not FluA PA binding
[1]
  IC50: 45 nM
  competition for binding to FluB PA: blocked FluB PA
